# Measurements from patent publication EP1113726B1, “USE OF NEOHESPERIDIN DIHYDROCHALCONE FOR THE MANUFACTURE OF A MEDICAMENT FOR PREVENTING OR TREATING ELEVATED BLOOD LIPID LEVEL-RELATED DISEASES” (Korea Research Institute of Bioscience and Biotechnology, priority 1998, dated 2000).
# Experiments:
# [1] = system: New Zealand White rabbits; experiment: Analysis for fatty streak in the main artery of cholesterol-fed rabbits (Oil Red O staining); type: in vivo; settings: 1 % cholesterol diet for 6 weeks plus 1 mg/kg Lovastatin or 0.05 % neohesperidin dihydrochalcone
# Method: 30 three-month-old New Zealand White rabbits(Yeonam Horticulture and Animal Husbandry College, Korea), each weighing about 2.5 to 2.6 kg, were raised under a condition of temperature 20±2°C, relative humidity 55±5 %, and photoperiod 12L/12D. The rabbits were divided into 3 groups and 3 groups of rabbits were fed with 3 different diets, i.e., RC4 diet(Oriental Yeast Co., Japan) containing 1 % cholesterol(Control group); 1 % cholesterol plus 1 mg/kg Lovastatin®(Merck, U.S.A.)(Lovastatin group); and 1 % cholesterol plus 0.05 % neohesperidin dihydrochalcone(Neohesperidin dihydrochalcone group), respectively. RC4 diet comprises 7.6 % moisture, 22.8 % crude protein, 2.8 % crude fat, 8.8 % crude ash, 14.4 % crude cellulose and 43.6 % soluble nitrogen-free substances. Neohesperidin dihydrochalcone was purchased from Sigma Chemical Co.(St. Louis, MO).
# The rabbits were fed for 6 weeks while being allowed free access to the diets and water.
# The chest of each of the rabbits sacrificed in Step 2 was incised. The downward portion of the main artery from the site 1 cm above the aortic valve was cut out in a length of about 5 cm and the fat surrounding the main artery was removed. The main artery was incised in the middle along the longitudinal axis and pinned to a dish. The moist artery was photographed and, then, the staining of fatty streaks was carried out in accordance with the method of Esper, E., et al. (J. Lab. Clin. Med., 121, 103-110(1993)) as follows.
# A part of the incised main artery was washed three times with anhydrous propylene glycol for 2 min and stained for 30 min. with a saturated solution of Oil Red O(ORO, Sigma Co.) dissolved in propylene glycol. Thereafter, the artery was washed twice with 85 % propylene glycol for 3 min. to remove remaining staining solution and, then washed with physiological saline. The artery was photographed and the photograph was traced. The area of stained region (fatty streak region) was determined with an image analyzer(LEICA, Q-600, Germany) and its proportion(%) to the total arterial area was calculated.
# Human = experiment: Effect of administration to a human on plasma lipid metabolism; type: in vivo; settings: two men in their mid-fifties, daily oral dose of 10mg/kg, capsule, 60 days, before versus after
# Method: Two men in their mid-fifties were administered with a daily oral dose of 10mg/kg of neohesperidin dihydrochalcone in the form of a capsule for 60 days. The plasma cholesterol and neutral lipid(triglyceride) contents were determined before and after the administration.
# Sprague-Dawley rats = experiment: Plasma total cholesterol, HDL-cholesterol and neutral lipid levels in rats fed a high-cholesterol diet; settings: 1 % cholesterol diet plus 0.05 % neohesperidin dihydrochalcone, six weeks
structure (smiles),measurement,setting,value
COc1ccc(CCC(=O)c2c(O)cc(O[C@@H]3O[C@H](CO)[C@@H](O)[C@H](O)[C@H]3O[C@@H]3O[C@@H](C)[C@H](O)[C@@H](O)[C@H]3O)cc2O)cc1O [Neohesperidin dihydrochalcone],A: Proportion(%) of fatty streak region to the total arterial area,[1]; rabbit main artery,12 (±7) %
same,"layer of macrophage-lipid complex on the arterial endothelium (Figs. 1B, 1C)",[1]; rabbits,no or very thin layers of macrophage-lipid complex
same,plasma cholesterol content reduced,Human,20%
same,plasma neutral lipid(triglyceride) content reduced,Human,15%
same,(HDL-C)/(Total-C (%)),Sprague-Dawley rats,16%
same,"neutral lipid content reduced, as compared with Control group",Sprague-Dawley rats,9%
same,"total plasma cholesterol level reduced, as compared with Control group",Sprague-Dawley rats,15%
same,HDL-C,Sprague-Dawley rats; n=10,19 ± 3 mg/dL
same,TG,Sprague-Dawley rats; n=10,52 ± 8 mg/dL
same,Total-C,Sprague-Dawley rats; n=10,115 ± 10 mg/dL
